The target in one series is Carbonic anhydrase 9 (Homo sapiens, UniProt Q16790).
Series [1] deals with RBE4. Put plainly: Protection against glucose oxidase-induced oxidative stress in rat RBE4 cells assessed as increase in cell viability at 10 to 100 uM cotreated with glucose oxidase for 1 hr measured after 24 hrs by MTT assay. Type of series: functional, cell-based.
Series [2] relates to RBE4. Put plainly: Cytotoxicity against rat RBE4 cells assessed as mortality at 10 uM after 24 hrs by MTT assay. In kind it is cell-based. The settings on record: rbe4, 24 h.
Series [3] deals with RBE4. Put plainly: Protection against glucose oxidase-induced oxidative stress in rat RBE4 cells assessed as increase in cell viability at 100 uM cotreated with glucose oxidase for 1 hr measured after 24 hrs by MTT assay. In kind it is functional, cell-based.
In series [4] the test system is RBE4. Kind of series: Cytotoxicity against rat RBE4 cells assessed as mortality at 30 uM after 24 hrs by MTT assay. In kind it is cell-based. The settings on record: rbe4, 24 h.

The source made the active and inactive calls. No cut-off for these calls is given here.

Description for Carbonic anhydrase 9: Inhibition of human carbonic anhydrase 9 after 15 mins by stopped flow carbon dioxide hydration assay

On Carbonic anhydrase 9, `NS(=O)(=O)c1ccc([Se]CCc2ccccc2)cc1` yielded a Ki of 8.7 nM.

`C#CC[Se]c1ccc(S(N)(=O)=O)cc1` registered a Ki on Carbonic anhydrase 9 of 2.7 nM.

On Carbonic anhydrase 9, `C=CC[Se]c1ccc(S(N)(=O)=O)cc1` yielded a Ki of 2.6 nM.

For the molecule `CC(C)[Se]c1ccc(S(N)(=O)=O)cc1`, at Carbonic anhydrase 9, affinity was put at a Ki of 2.4 nM. In the series with RBE4 [1], the result was inactive. Further, the Activity result in the series with RBE4 [2] is listed as “Non-Toxic”.

The molecule `COCC[Se]c1ccc(S(N)(=O)=O)cc1` came in with a Ki at Carbonic anhydrase 9 of 12 nM. Moreover, in the series with RBE4 [3], the result was Active. The Activity entry in the series on RBE4 [2] is “Non-Toxic”.

Take `CCCCC[Se]c1ccc(S(N)(=O)=O)cc1`: affinity on Carbonic anhydrase 9 was put at a Ki of 2.6 nM. The outcome in the series with RBE4 [1] was inactive. Moreover, the Activity result in the series with RBE4 [2] is “Non-Toxic”.

On to `NS(=O)(=O)c1ccc([Se][Se]c2ccc(S(N)(=O)=O)cc2)cc1`, for which the mortality with RBE4 [4] is on record as 50%.

As for `NS(=O)(=O)c1ccc(C[Se]c2ccccc2)cc1`, the Ki on Carbonic anhydrase 9 was 2.7 nM.

Turning to `NS(=O)(=O)c1ccc([Se]CCO)cc1`, the Ki at Carbonic anhydrase 9 worked out at 2.4 nM. For the same molecule, in the series with RBE4 [1], the outcome was inactive. Further, the Activity result in the series on RBE4 [2] is “Non-Toxic”.

As for `C[Se]c1ccc(S(N)(=O)=O)cc1`, the Ki at Carbonic anhydrase 9 is 2.7 nM.

As for `CC#CC[Se]c1ccc(S(N)(=O)=O)cc1`, affinity at Carbonic anhydrase 9 was put at a Ki of 2.2 nM.

Molecule `NS(=O)(=O)c1ccc([Se]C2CCCCC2)cc1` had a Ki on Carbonic anhydrase 9 of 2.6 nM.

(Values after ChEMBL document CHEMBL4145596, “Design, Synthesis, and X-ray of Selenides as New Class of Agents for Prevention of Diabetic Cerebrovascular Pathology” (ACS Med Chem Lett, 2018).)
